Test results reported in patent US20220324835A1 (Nurix Therapeutics, Inc., priority 2018, published 2022).

Columns and labels:
Cbl-b [1] = target: T1, Cbl-b (Homo sapiens, UniProt Q13191); experiment: Cbl-b activity assay (Cbl-b inhibition assay), TR-FRET of Cbl-b interaction with UbcH5B-Ub; assay type: biochemical; settings: assay buffer with 100 mM NaCl, 60 nM Src kinase; read-out: Cbl-b activity IC50
Method in brief: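 Compound-treated Cbl-b was incubated 1.5 h with Src kinase (60 nM final; 30 nM for asterisked values, which also used 50 mM instead of 100 mM NaCl), 1 mM ATP and 5 mM MgCl2. Binding to fluorescent Ub-loaded UbcH5B (C85K mutant) was then read by TR-FRET after 1 h more.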

Cbl-b [2] = target: T1, Cbl-b; experiment: Cbl-b inhibition assay (Cbl-b activity assay, FRET, Biological Example 1; 100 mM NaCl, 60 nM Src kinase); assay type: biochemical; settings: upper bound stated in text lists; read-out: IC50 values in the Cbl-b inhibition assay of Biological Example 1
Method in brief: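 Inhibition is read as loss of FRET signal. The signal arises when Src-phosphorylated, N-terminal biotinylated Avi-Cbl-b (captured by streptavidin-terbium) binds UbcH5B carrying covalently linked Bodipy-Fluorescein-tagged ubiquitin.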

T-cell [3] = experiment: IL-2 secretion from T-cells stimulated with anti-CD3 antibody alone (Biological Example 2); assay type: cell-based, human; settings: T-cell; for fold induction at 8 µM: 8 μM Cbl-b inhibitor
T-cell [4] = experiment: IL-2 secretion from T-cells co-stimulated with anti-CD3 and anti-CD28 antibody (Biological Example 2); assay type: cell-based, human; settings: Homo sapiens, T-cell; for fold induction at 4 µM: 4 μM Cbl-b inhibitor
Method in brief: (§1)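 Values are fold-change over baseline: readings (IL-2 release, CD25 staining) from inhibitor-treated T-cells divided against untreated cells […]. No detailed procedure stated.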

T-cell [5] = experiment: CD25 cell surface staining on T-cells co-stimulated with anti-CD3 and anti-CD28 antibody (Biological Example 2); assay type: cell-based, human; settings: Homo sapiens, T-cell; for fold induction at 4 µM: 4 μM Cbl-b inhibitor
Method in brief: as §1

T-cell [6] = experiment: CD25 cell surface staining on T-cells stimulated with anti-CD3 antibody alone (Biological Example 2); assay type: cell-based, human; settings: T-cell; for fold induction at 8 µM: 8 μM Cbl-b inhibitor
[7] = Homo sapiens, 1 μM Cbl-b inhibitor, fold change over baseline (anti-CD3/anti-CD28 stimulated T-cells without inhibitor), read-out: IL-2 secretion Anti-CD3 stimulation
[8] = 0.3 μM Cbl-b inhibitor, fold change over baseline (anti-CD3/anti-CD28 stimulated T-cells without inhibitor), read-out: IL-2 secretion Anti-CD3/Anti-CD28 stimulation
[9] = 1 μM Cbl-b inhibitor, fold change over baseline (anti-CD3/anti-CD28 stimulated T-cells without inhibitor), read-out: IL-2 secretion Anti-CD3/Anti-CD28 stimulation
[10] = 0.3 μM Cbl-b inhibitor, fold change over baseline (anti-CD3/anti-CD28 stimulated T-cells without inhibitor), read-out: CD25 staining Anti-CD3/Anti-CD28 stimulation
[11] = 1 μM Cbl-b inhibitor, fold change over baseline (anti-CD3/anti-CD28 stimulated T-cells without inhibitor), read-out: CD25 staining Anti-CD3/Anti-CD28 stimulation
[12] = Homo sapiens, 1 μM Cbl-b inhibitor, fold change over baseline (anti-CD3/anti-CD28 stimulated T-cells without inhibitor), read-out: CD25 staining Anti-CD3 stimulation
[13] = fold change over baseline, 1 μM Cbl-b inhibitor, primary human total T-cells, read-out: IL-2 secretion Anti-CD3 stimulation
[14] = fold change over baseline, primary human total T-cells, read-out: IL-2 secretion Anti-CD3 stimulation
[15] = fold change over baseline, 0.3 μM Cbl-b inhibitor, primary human total T-cells, read-out: IL-2 secretion Anti-CD3/Anti-CD28 stimulation
[16] = fold change over baseline, 1 μM Cbl-b inhibitor, primary human total T-cells, read-out: IL-2 secretion Anti-CD3/Anti-CD28 stimulation
[17] = fold change over baseline, primary human total T-cells, read-out: IL-2 secretion Anti-CD3/Anti-CD28 stimulation
[18] = fold change over baseline, 0.3 μM Cbl-b inhibitor, primary human total T-cells, read-out: CD25 staining Anti-CD3/Anti-CD28 stimulation
[19] = fold change over baseline, 1 μM Cbl-b inhibitor, primary human total T-cells, read-out: CD25 staining Anti-CD3/Anti-CD28 stimulation
[20] = fold change over baseline, primary human total T-cells, read-out: CD25 staining Anti-CD3/Anti-CD28 stimulation
[21] = fold change over baseline, 1 μM Cbl-b inhibitor, primary human total T-cells, read-out: CD25 staining Anti-CD3 stimulation
[22] = fold change over baseline, primary human total T-cells, read-out: CD25 staining Anti-CD3 stimulation
[23] = read-out: IL-2 secretion, Anti-CD3/Anti-CD28 stimulation, fold change over baseline
[24] = read-out: CD25 staining, Anti-CD3/Anti-CD28 stimulation, fold change over baseline

T1 sequence (Q13191 36-427): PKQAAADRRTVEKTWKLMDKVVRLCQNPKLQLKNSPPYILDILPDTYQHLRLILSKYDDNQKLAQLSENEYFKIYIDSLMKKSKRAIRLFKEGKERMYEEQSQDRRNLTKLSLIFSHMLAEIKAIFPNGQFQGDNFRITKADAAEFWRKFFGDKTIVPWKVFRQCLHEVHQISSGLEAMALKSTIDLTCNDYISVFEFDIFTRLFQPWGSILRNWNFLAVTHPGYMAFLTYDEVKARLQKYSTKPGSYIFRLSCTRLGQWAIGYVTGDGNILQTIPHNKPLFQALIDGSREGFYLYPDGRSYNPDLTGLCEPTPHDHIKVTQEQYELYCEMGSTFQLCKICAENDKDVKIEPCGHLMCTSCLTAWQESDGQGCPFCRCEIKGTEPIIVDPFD

Structure (SMILES)	IC50 (Cbl-b [1]) [nM]	IC50 (Cbl-b [2]) [nM]	fold induction at 1 µM (T-cell [3]; [7])	fold induction at 0.3 µM (T-cell [4]; [8])	fold induction at 1 µM (T-cell [4]; [9])	fold induction at 0.3 µM (T-cell [5]; [10])	fold induction at 1 µM (T-cell [5]; [11])	fold induction at 1 µM (T-cell [6]; [12])	fold induction at 1 µM (T-cell [3]; [13])	fold induction at 0.3 µM (T-cell [4]; [15])	fold induction at 1 µM (T-cell [4]; [16])	fold induction at 0.3 µM (T-cell [5]; [18])	fold induction at 1 µM (T-cell [5]; [19])	fold induction at 1 µM (T-cell [6]; [21])	also measured
Cc1cc(C(=O)Nc2cccc(C3(Cc4nncn4C)COC3)c2)n2nc(C(F)(F)F)cc2n1 [Example 598, 5-Methyl-N-(3-(3-((4-methyl-4H-1,2,4-triazol-3-yl)methyl)oxetan-3-yl)phenyl)-2-(trifluoromethyl)pyrazolo[1,5-a]pyrimidine-7-carboxamide]	100 to 300	≤ 300	< 0.05	1.01 to 2.5	1.01 to 2.5	1.01 to 1.3	1.01 to 1.3	0.601 to 0.8							
C[C@H](Cc1nncn1C)c1cc(OC2COC2)nc(N2Cc3c(cccc3C(F)(F)F)C2=O)c1 [Compound 354, 2-{4-[(2R)-1-(4-methyl-4H-1,2,4-triazol-3-yl)propan-2-yl]-6-(oxetan-3-yloxy)pyridin-2-yl}-4-(trifluoromethyl)-2,3-dihydro-1H-isoindol-1-one]	100 to 300	≤ 300							0.101 to 0.15	1.01 to 2.5	1.01 to 2.5	1.01 to 1.3	1.01 to 1.3	0.601 to 0.8	fold induction at 8 µM (T-cell [3]; [14]): > 0.201; fold induction at 4 µM (T-cell [4]; [17]): 5 to 7.5; fold induction at 4 µM (T-cell [5]; [20]): 1.31 to 1.5; fold induction at 8 µM (T-cell [6]; [22]): > 1
Cn1cnnc1[C@@H](F)C1(c2cccc(N3Cc4c(cc(CN5CCC6(CC6)C5)cc4C(F)(F)F)C3=O)c2)COC1 [Example 618, (S)-6-((5-azaspiro[2.4]heptan-5-yl)methyl)-2-(3-(3-(fluoro(4-methyl-4H-1,2,4-triazol-3-yl)methyl)oxetan-3-yl)phenyl)-4-(trifluoromethyl)isoindolin-1-one]	< 100	≤ 100	0.101 to 0.15	5 to 7.5	> 7.5	1.01 to 1.3	1.31 to 1.5	> 1							
Cn1cnnc1[C@H]1CC[C@H]1c1cccc(N2Cc3c(cccc3C(F)(F)F)C2=O)c1 (racemic) [Compound 283, cis-2-(3-(2-(4-Methyl-4H-1,2,4-triazol-3-yl)cyclobutyl)phenyl)-4-(trifluoromethyl)isoindolin-1-one]	301 to 1000	≤ 1000							< 0.05	< 1	1.01 to 2.5	< 1	< 1	< 0.6	fold induction at 8 µM (T-cell [3]; [14]): 0.101 to 0.15; fold induction at 4 µM (T-cell [4]; [17]): 1.01 to 2.5; fold induction at 4 µM (T-cell [5]; [20]): 1.01 to 1.3; fold induction at 8 µM (T-cell [6]; [22]): < 0.6
Cc1cc(C(=O)Nc2cccc([C@H](C)Cc3nncn3C)c2)nc2ccnn12 [Compound 329, (R)-7-Methyl-N-(3-(1-(4-methyl-4H-1,2,4-triazol-3-yl)propan-2-yl)phenyl)pyrazolo[1,5-a]pyrimidine-5-carboxamide]	100 to 300	≤ 300							0.101 to 0.15	1.01 to 2.5	1.01 to 2.5	1.01 to 1.3	1.01 to 1.3	0.601 to 0.8	fold induction at 8 µM (T-cell [3]; [14]): > 0.201; fold induction at 4 µM (T-cell [4]; [17]): 5 to 7.5; fold induction at 4 µM (T-cell [5]; [20]): 1.31 to 1.5; fold induction at 8 µM (T-cell [6]; [22]): > 1
Cn1cnnc1CC1(c2cccc(N3Cc4c(cc(CN5C6CCC5CC6)cc4C(F)(F)F)C3=O)c2)COC1 [Example 555, 6-((7-azabicyclo[2.2.1]heptan-7-yl)methyl)-2-(3-(3-((4-methyl-4H-1,2,4-triazol-3-yl)methyl)oxetan-3-yl)phenyl)-4-(trifluoromethyl)isoindolin-1-one]	< 100	≤ 100													fold induction at 1 µM (T-cell [3]; Homo sapiens, read-out: IL-2 secretion, Anti-CD3 stimulation, fold change over baseline): > 0.201; fold induction at 0.3 µM (T-cell [4]; [23]): > 7.5; fold induction at 1 µM (T-cell [4]; [23]): > 7.5; fold induction at 0.3 µM (T-cell [5]; [24]): 1.51 to 1.75; fold induction at 1 µM (T-cell [5]; [24]): 1.51 to 1.75; fold induction at 1 µM (T-cell [6]; Homo sapiens, read-out: CD25 staining, Anti-CD3 stimulation, fold change over baseline): > 1
Cn1cnnc1CC1(c2cccc(N3Cc4c(cc(CN5CCOC6(CCC6)C5)cc4C(F)(F)F)C3=O)c2)COC1 [Example 703, 6-((5-oxa-8-azaspiro[3.5]nonan-8-yl)methyl)-2-(3-(3-((4-methyl-4H-1,2,4-triazol-3-yl)methyl)oxetan-3-yl)phenyl)-4-(trifluoromethyl)isoindolin-1-one]	< 100	≤ 100	> 0.201	> 7.5	> 7.5	1.01 to 1.3	1.01 to 1.3	> 1							
COc1cc(C(=O)Nc2cccc(C3(Cc4nncn4C)COC3)c2)nc(C2CC2)n1 [Compound 342, 2-cyclopropyl-6-methoxy-N-(3-(3-((4-methyl-4H-1,2,4-triazol-3-yl)methyl)oxetan-3-yl)phenyl)pyrimidine-4-carboxamide]	< 100	≤ 100							0.151 to 0.2	5 to 7.5	> 7.5	1.01 to 1.3	1.31 to 1.5	> 1	
CCN1CCN(Cc2cc3c(c(C(F)(F)F)c2)CN(c2cccc(C4(Cc5nncn5C)COC4)c2)C3=O)CC1 [Example 624, 6-((4-ethylpiperazin-1-yl)methyl)-2-(3-(3-((4-methyl-4H-1,2,4-triazol-3-yl)methyl)oxetan-3-yl)phenyl)-4-(trifluoromethyl)isoindolin-1-one]	< 100	≤ 100	> 0.201	5 to 7.5	> 7.5	1.31 to 1.5	1.31 to 1.5	> 1							
Cn1cnnc1CC1(c2cccc(N3Cc4c(cc(CN5CCCCC(F)C5)cc4C(F)(F)F)C3=O)c2)COC1 (stereo not shown) [Example 627, 6-((3-fluoroazepan-1-yl)methyl)-2-(3-(3-((4-methyl-4H-1,2,4-triazol-3-yl)methyl)oxetan-3-yl)phenyl)-4-(trifluoromethyl)isoindolin-1-one]	< 100	≤ 100	> 0.201	5 to 7.5	> 7.5	1.31 to 1.5	1.31 to 1.5	> 1							
Cn1cnnc1CC1(c2cccc(N3Cc4c(cc(CN5CCC(C(F)F)CC5)cc4C(F)(F)F)C3=O)c2)COC1 [Example 643, 6-((4-(difluoromethyl)piperidin-1-yl)methyl)-2-(3-(3-((4-methyl-4H-1,2,4-triazol-3-yl)methyl)oxetan-3-yl)phenyl)-4-(trifluoromethyl)isoindolin-1-one]	< 100	≤ 100	0.151 to 0.2	5 to 7.5	> 7.5	1.31 to 1.5	1.31 to 1.5	> 1							
